Target: human GluN1/GluN2B NMDA receptors (Homo sapiens, UniProt Q05586+Q13224)
Test: Cell-based calcium flux (FLIPR) assay on cloned human NR1/NR2B ion channels expressed in mammalian cells
Details: standard assay
How it was run: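 Calcium influx followed by FLIPR fluorescence after 5 min compound exposure and a further 5 min co-agonist challenge: 10 μM glycine with glutamate at ~EC80 (standard) or EC40 (HTS).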

[1] = human GluN1/GluN2B, calcium flux (FLIPR), glutamate ~EC80
[2] = glutamate at ~EC80, FLIPR calcium flux

human GluN1/GluN2B NMDA receptors, sequence (Q13224 27-1484, other chains not shown): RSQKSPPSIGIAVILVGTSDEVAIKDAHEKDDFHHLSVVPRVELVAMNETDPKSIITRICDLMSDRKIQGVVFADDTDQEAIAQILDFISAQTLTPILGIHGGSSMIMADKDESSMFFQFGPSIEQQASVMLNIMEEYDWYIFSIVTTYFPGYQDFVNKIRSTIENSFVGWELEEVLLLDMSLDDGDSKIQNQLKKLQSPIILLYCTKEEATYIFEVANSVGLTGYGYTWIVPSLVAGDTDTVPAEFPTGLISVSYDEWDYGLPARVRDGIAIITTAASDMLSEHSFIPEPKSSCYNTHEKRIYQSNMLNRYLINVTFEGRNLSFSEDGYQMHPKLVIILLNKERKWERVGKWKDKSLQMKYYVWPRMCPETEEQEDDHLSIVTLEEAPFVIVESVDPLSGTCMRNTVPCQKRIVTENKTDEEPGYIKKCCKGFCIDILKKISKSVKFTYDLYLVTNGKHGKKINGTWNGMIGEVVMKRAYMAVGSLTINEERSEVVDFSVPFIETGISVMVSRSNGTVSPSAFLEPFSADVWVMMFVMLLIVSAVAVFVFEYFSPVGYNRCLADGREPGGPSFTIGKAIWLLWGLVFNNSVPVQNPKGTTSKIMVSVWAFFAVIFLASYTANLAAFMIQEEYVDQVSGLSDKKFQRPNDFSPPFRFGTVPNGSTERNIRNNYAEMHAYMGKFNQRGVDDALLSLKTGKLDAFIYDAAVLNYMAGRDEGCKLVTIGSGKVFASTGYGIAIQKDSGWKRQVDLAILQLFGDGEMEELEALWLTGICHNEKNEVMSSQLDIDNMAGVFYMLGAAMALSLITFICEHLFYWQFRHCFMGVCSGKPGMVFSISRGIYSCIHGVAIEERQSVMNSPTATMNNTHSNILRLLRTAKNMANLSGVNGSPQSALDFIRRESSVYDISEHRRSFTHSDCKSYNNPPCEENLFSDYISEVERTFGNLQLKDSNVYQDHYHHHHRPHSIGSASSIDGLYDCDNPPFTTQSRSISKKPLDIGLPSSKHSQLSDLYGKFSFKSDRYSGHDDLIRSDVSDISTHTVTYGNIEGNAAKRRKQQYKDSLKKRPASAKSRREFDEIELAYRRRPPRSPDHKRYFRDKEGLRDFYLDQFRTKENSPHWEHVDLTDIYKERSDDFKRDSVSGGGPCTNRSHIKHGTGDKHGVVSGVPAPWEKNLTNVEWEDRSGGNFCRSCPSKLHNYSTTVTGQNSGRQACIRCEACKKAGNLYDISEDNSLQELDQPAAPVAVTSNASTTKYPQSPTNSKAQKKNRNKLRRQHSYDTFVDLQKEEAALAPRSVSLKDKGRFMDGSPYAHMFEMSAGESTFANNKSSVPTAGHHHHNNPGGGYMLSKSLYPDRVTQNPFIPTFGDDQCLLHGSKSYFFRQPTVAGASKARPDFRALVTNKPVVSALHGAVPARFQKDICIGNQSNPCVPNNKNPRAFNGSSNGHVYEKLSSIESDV

| SMILES | IC50 [1] [µM] | IC50 [2] [µM] |
| --- | --- | --- |
| C[C@H](Oc1ncc(Cl)cn1)c1cn(-c2ccc(Cl)c(OC(F)F)c2)nn1 [Example 379, 5-Chloro-2-[(1S)-1-[1-[4-chloro-3-(difluoromethoxy)phenyl]triazol-4-yl]ethoxy]pyrimidine] | 0.575 |  |
| CC(F)(F)c1cc(-n2cc(COc3ncc(Cl)cn3)nn2)ccc1F [Example 69, 5-Chloro-2-[[1-[3-(1,1-difluoroethyl)-4-fluoro-phenyl]triazol-4-yl]methoxy]pyrimidine] | 0.009 |  |
| Cc1cnc(OCc2nnn(-c3ccc(F)c(C(C)(F)F)c3)c2C)nc1C [Example 595, 2-[[1-[3-(1,1-Difluoroethyl)-4-fluoro-phenyl]-5-methyl-triazol-4-yl]methoxy]-4,5-dimethyl-pyrimidine] |  | 0.706 |
| FC(F)c1cc(-n2cc(COc3ncc(C(F)(F)F)cn3)nn2)ccc1Cl [Example 45, 2-[[1-[4-Chloro-3-(difluoromethyl)phenyl]triazol-4-yl]methoxy]-5-(trifluoromethyl)pyrimidine] | 0.004 |  |
| OCc1ccnc(OCc2cn(-c3cccc(C(F)F)c3)nn2)n1 [Example 159, [2-[[1-[3-(Difluoromethyl)phenyl]triazol-4-yl]methoxy]pyrimidin-4-yl]methanol] | 0.408 |  |
| Cc1nc(OCc2cn(-c3cccc(Cl)c3F)nn2)ncc1F [Example 613, 2-[[1-(3-Chloro-2-fluoro-phenyl)triazol-4-yl]methoxy]-5-fluoro-4-methyl-pyrimidine] |  | 1.44 |
| Fc1ccc(-n2cc(CNc3ncccn3)nn2)cc1C(F)F [Example 24, N-[[1-[3-(Difluoromethyl)-4-fluoro-phenyl]triazol-4-yl]methyl]pyrimidin-2-amine] | 0.824 |  |
| Cc1ccnc(OCc2cn(-c3cccc(C(C)(F)F)c3)nn2)n1 [Example 296, 2-[[1-[3-(1,1-Difluoroethyl)phenyl]triazol-4-yl]methoxy]-4-methyl-pyrimidine] | 0.012 |  |
| Cc1ccnc(OCc2cn(-c3ccc(F)c(C(F)F)c3)nn2)n1 [Example 52, 2-[[1-[3-(Difluoromethyl)-4-fluoro-phenyl]triazol-4-yl]methoxy]-4-methyl-pyrimidine] | 0.008 |  |
| FC1CN(c2cnc(OCc3cn(-c4ccc(Cl)c(OC(F)F)c4)nn3)nc2)C1 [Example 392, 2-((1-(4-Chloro-3-(difluoromethoxy)phenyl)-1H-1,2,3-triazol-4-yl)methoxy)-5-(3-fluoroazetidin-1-yl)pyrimidine] |  | 0.017 |
| Fc1cnc(NCc2cn(-c3cccc(C(F)F)c3)nn2)nc1 [Example 197, N-[[1-[3-(Difluoromethyl)phenyl]triazol-4-yl]methyl]-5-fluoro-pyrimidin-2-amine] | 0.652 |  |
| CC(F)(F)c1cccc(-n2cc(COc3ncc(Cl)cn3)nn2)c1 [Example 294, 5-Chloro-2-[[1-[3-(1,1-difluoroethyl)phenyl]triazol-4-yl]methoxy]pyrimidine] | 0.003 |  |
| CC(F)(F)c1cc(-n2cc(COc3ncc(C4CC4)cn3)nn2)ccc1Cl [Example 552, 2-[[1-[4-Chloro-3-(1,1-difluoroethyl)phenyl]triazol-4-yl]methoxy]-5-cyclopropyl-pyrimidine] |  | 0.086 |
| Cc1cnc(OCc2cn(-c3ccc(Cl)c(C(C)(F)F)c3)nn2)nc1C [Example 545, 2-[[1-[4-Chloro-3-(1,1-difluoroethyl)phenyl]triazol-4-yl]methoxy]-4,5-dimethyl-pyrimidine] |  | 0.006 |
| Cc1cccc(-n2cc(COc3ncc(C)c(C)n3)nn2)c1 [Example 251, 4,5-Dimethyl-2-[[1-(m-tolyl)triazol-4-yl]methoxy]pyrimidine] | 0.002 |  |
| Cc1c(F)ccc(-n2cc(COc3ncc(C(F)F)cn3)nn2)c1F [Example 641, 5-(Difluoromethyl)-2-[[1-(2,4-difluoro-3-methyl-phenyl)triazol-4-yl]methoxy]pyrimidine] |  | 0.111 |
| Fc1cnc(OCc2cn(-c3cccc(Cl)c3F)nn2)nc1 [Example 614, 2-[[1-(3-Chloro-2-fluoro-phenyl)triazol-4-yl]methoxy]-5-fluoro-pyrimidine] |  | 4.03 |
| Cc1cnc(OCc2cn(-c3cccc(C(C)(F)F)c3)nn2)nc1N [Example 314, 2-[[1-[3-(1,1-Difluoroethyl)phenyl]triazol-4-yl]methoxy]-5-methyl-pyrimidin-4-amine] | 0.006 |  |
| Cn1nccc1NCc1cn(-c2ccc(F)c(OC(F)F)c2)nn1 [Example 223, N-((1-(3-(Difluoromethoxy)-4-fluorophenyl)-1H-1,2,3-triazol-4-yl)methyl)-1-methyl-1H-pyrazol-5-amine] | 11.8 |  |
| Fc1ccc(-n2cc(CNc3ncc(Cl)cn3)nn2)cc1C(F)F [Example 212, 5-Chloro-N-[[1-[3-(difluoromethyl)-4-fluoro-phenyl]triazol-4-yl]methyl]pyrimidin-2-amine] | 0.074 |  |
| CC(F)(F)c1cc(-n2cc(COc3ncc(Br)cn3)nn2)ccc1F [Example 183, 5-Bromo-2-[[1-[3-(1,1-difluoroethyl)-4-fluoro-phenyl]triazol-4-yl]methoxy]pyrimidine] | 0.009 |  |
| Cc1c(F)ccc(-n2cc(COc3ncc(OC(F)F)cn3)nn2)c1F [Example 646, 5-(Difluoromethoxy)-2-[[1-(2,4-difluoro-3-methyl-phenyl)triazol-4-yl]methoxy]pyrimidine] |  | 0.099 |

| SMILES | IC50 [1] [µM] | IC50 [2] [µM] |
| --- | --- | --- |
| Cc1cnc(OCc2cn(-c3cncc(C)c3)nn2)nc1 [Example 176, 5-Methyl-2-[[1-(5-methyl-3-pyridyl)triazol-4-yl]methoxy]pyrimidine] | 0.929 |  |
| COCc1ccnc(OCc2cn(-c3cccc(C(C)(F)F)c3)nn2)n1 [Example 300, 2-[[1-[3-(1,1-Difluoroethyl)phenyl]triazol-4-yl]methoxy]-4-(methoxymethyl)pyrimidine] | 0.008 |  |
| CN(C)c1ccnc(OCc2cn(-c3ccc(Cl)c(C(F)F)c3)nn2)n1 [Example 629, 2-[[1-[4-Chloro-3-(difluoromethyl)phenyl]triazol-4-yl]methoxy]-N,N-dimethyl-pyrimidin-4-amine] |  | 0.007 |
| COc1cnc(O[C@@H](C)c2cn(-c3ccc(Cl)c(OC(F)F)c3)nn2)nc1 [Example 381, 2-[(1S)-1-[1-[4-Chloro-3-(difluoromethoxy)phenyl]triazol-4-yl]ethoxy]-5-methoxy-pyrimidine] | 0.196 |  |
| Cc1cccc(-n2cc(COc3ncc(Cl)cn3)nn2)n1 [Example 659, 5-Chloro-2-[[1-(6-methyl-2-pyridyl)triazol-4-yl]methoxy]pyrimidine] |  | > 2.99 |
| CCOc1cnc(OCc2cn(-c3ccc(F)c(C(F)(F)F)c3)nn2)nc1 [Example 443, 5-Ethoxy-2-[[1-[4-fluoro-3-(trifluoromethyl)phenyl]triazol-4-yl]methoxy]pyrimidine] |  | 0.004 |
| FC(F)c1cc(-n2cc(COc3ncccn3)nn2)ccc1Cl [Example 1, 2-((1-(4-Chloro-3-(difluoromethyl)phenyl)-1H-1,2,3-triazol-4-yl)methoxy)pyrimidine] | 0.049 |  |
| Fc1ccc(-n2cc(COc3ccc(C(F)(F)F)cn3)nn2)cc1C(F)(F)F [Example 432, 2-[[1-[4-Fluoro-3-(trifluoromethyl)phenyl]triazol-4-yl]methoxy]-5-(trifluoromethyl)pyridine] |  | 0.528 |
| Cc1ccc(-n2cc(COc3ncc(Br)cn3)nn2)cc1OC(F)F [Example 525, 5-Bromo-2-[[1-[3-(difluoromethoxy)-4-methyl-phenyl]triazol-4-yl]methoxy]pyrimidine] |  | 0.04 |
| CC(F)(F)c1cc(-n2cc(COc3ccc(C(F)(F)F)cn3)nn2)ccc1F [Example 559, 2-[[1-[3-(1,1-Difluoroethyl)-4-fluoro-phenyl]triazol-4-yl]methoxy]-5-(trifluoromethyl)pyridine] |  | 0.812 |
| Nc1ccnc(OCc2cn(-c3ccc(Cl)c(OC(F)F)c3)nn2)n1 [Example 382, 2-((1-(4-chloro-3-(difluoromethoxy)phenyl)-1H-1,2,3-triazol-4-yl)methoxy)pyrimidin-4-amine] | 0.021 |  |
| FC(F)c1cccc(-n2cc(CNc3ncccn3)nn2)c1 [Example 6] | 10.6 |  |
| Cc1c(F)ccc(-n2cc(COc3ncc(C4CC4)cn3)nn2)c1F [Example 647, 5-Cyclopropyl-2-[[1-(2,4-difluoro-3-methyl-phenyl)triazol-4-yl]methoxy]pyrimidine] |  | 0.034 |
| Cc1cc(-n2cc(COc3ncc(Cl)cn3)nn2)c(F)cc1F [Example 653, 5-Chloro-2-[[1-(2,4-difluoro-5-methyl-phenyl)triazol-4-yl]methoxy]pyrimidine] |  | 1.49 |
| CC(C)c1cnc(OCc2cn(-c3ccc(Cl)c(OC(F)F)c3)nn2)nc1 [Example 373, 2-[[1-[4-Chloro-3-(difluoromethoxy)phenyl]triazol-4-yl]methoxy]-5-isopropyl-pyrimidine] | 0.01 |  |
| CC(=O)c1cnc(OCc2cn(-c3cccc(C)c3)nn2)nc1 [Example 255, 1-[2-[[1-(m-Tolyl)triazol-4-yl]methoxy]pyrimidin-5-yl]ethanone] | 0.224 |  |
| COc1cnc(OCc2cn(-c3ccc(Cl)c(C(F)F)c3)nn2)nc1 [Example 46, 2-[[1-[4-Chloro-3-(difluoromethyl)phenyl]triazol-4-yl]methoxy]-5-methoxy-pyrimidine] | 0.001 |  |
| CC(C)c1cccc(-n2cc(COc3ncc(Cl)cn3)nn2)c1 [Example 265, 5-Chloro-2-[[1-(3-isopropylphenyl)triazol-4-yl]methoxy]pyrimidine] | 0.016 |  |
| Fc1ccc(-n2cc(COc3ncc(N4CCC4)cn3)nn2)cc1OC(F)F [Example 165, 5-(Azetidin-1-yl)-2-[[1-[3-(difluoromethoxy)-4-fluoro-phenyl]triazol-4-yl]methoxy]pyrimidine] | 0.016 |  |
| CC(=O)c1cnc(OCc2cn(-c3ccc(F)c(C(F)F)c3)nn2)nc1 [Example 156, 1-[2-[[1-[3-(Difluoromethyl)-4-fluoro-phenyl]triazol-4-yl]methoxy]pyrimidin-5-yl]ethanone] | 0.005 |  |
| Fc1ccc(-n2cc(COc3ncc(Cl)cn3)nn2)cc1 [Example 164, 5-Chloro-2-[[1-(4-fluorophenyl)triazol-4-yl]methoxy]pyrimidine] | 0.371 |  |

From US10233173B2, “Substituted 1,2,3-triazoles as NR2B-selective NMDA modulators” (JANSSEN PHARMACEUTICA NV, priority 2016, dated 2019)
